Reference: patent publication US11690897B2, “Salt inducible kinase inhibitors for enhancing fertility” (The Board of Trustees of the University of Illinois, priority 2019, dated 2023)

Experiments:
[1] = system: rat granulosa cells; test: Cyp19a1 (aromatase) mRNA in primary rat granulosa cells, qPCR relative to Rpl19; type: cell-based; conditions: for FSH-stimulation of aromatase (Cyp19a1 mRNA): FSH plus inhibitor vs FSH, 48 hours, rat granulosa cells (rat and mouse)
Experimental: Cyp19a1 mRNA levels were quantified 48 hours later and expressed as relative levels to ribosomal L19 protein (Rp119).
FIG. 5A, Expression of each SIK isoform in rat granulosa cells exposed to scrambled oligos (shSCR) or anti-SIK1 (shSIK1), SIK2 (shSIK2), or SIK3 (shSIK3) shRNAs. *p<0.05, **p<0.01, t-test, n=3. FIG. 5B, Cyp19a1, STARD1, and CYP11a1 relative mRNA expression levels after exposure to shSCR, shSIK1, shSIK2, or shSIK3. […] FIG. 5C, Inverse correlation between SIK2 knockdown with CYP19a1 expression in rat granulosa cells.
(§1) Cyp19a1 mRNA levels were quantified 48 hours later and expressed as relative levels to Rp119. Different letters represent significant differences (mean±SEM, n=5, one-way ANOVA followed by Tukey, p<0.05). FIG. 8B, Immature 23-day-old female mice were injected i.p. with YKL or vehicle (PBS). Two hours later, animals were treated with PMSG or PMSG plus YKL. The expression of CYP19a1, CYP11a1, and STARD1 was quantified 48 hours later. *p<0.05, t-test, n=7.
Rat Granulosa Cells. Rat granulosa cells were isolated from immature rats treated with estradiol for three days. Cells were cultured and treated as described for human granulosa cells. Rat experiments were approved by the Biologic Resources Laboratory (BRL) of the University of Illinois at Chicago.
(§2) mRNA Quantification. Total RNA was isolated at the end of each experiment using TRIzol™ reagent (Invitrogen) according to the manufacturer's protocol. The isolated RNA was reverse-transcribed using anchored oligo-dT primers (IDT, Coralville, Iowa) and Moloney Murine Leukemia Virus reverse transcriptase (Invitrogen) at 37° C. for 1 hour. The resulting cDNA was diluted with water to a final volume of 100 μl and 5 μl of diluted cDNA was used for each qPCR reaction. Gene expression is reported relative to ribosomal protein L19 mRNA (Rp119).

[2] = system: human granulosa cells; test: CYP19A1 protein (western blot) in granulosa cells of IVF patients with different etiologies; type: cell-based; conditions: patient with anovulation, HG alone or in the presence of FSH
Text: Primary granulosa cells were obtained from patients with normal ovarian function (left panel) or patients diagnosed with polycystic ovarian syndrome or anovulation (right panel). […] The intensity of the CYP19a1 and BACT bands was quantified, and the data expressed as a ratio between aromatase and BACT. Different letters represent significant differences, one-way ANOVA followed by Tukey test, p<0.05, (n=5).
Human Granulosa Cells. Human cells were collected from the follicular aspirates of women undergoing in vitro fertilization treatment at the University of Illinois at Chicago Fertility Center, under Institute Review Board approval. Informed consents were obtained from all women. […] Cells were transported immediately to the laboratory where they were dispersed by hyaluronidase digestion (8 IU/μl) and then centrifuged at 500×g for 5 minutes. Cells were incubated at room temperature in red blood cell lysis buffer for 2 minutes to eliminate contaminating erythrocytes. The cells were again centrifuged at 500×g for 5 minutes and suspended in 0.5 ml of serum-free DMEM/F12-0.25% BSA medium containing antibiotics. […] To investigate protein expression, cells were plated at a density of 200000 cells/well in 6-well plates coated with reconstituted basement membrane sold under the tradename Matrigel® (DB Biosciences). […] Each data point reflects a result obtained from individual patients. […]

[3] = system: Mouse granulosa cells; test: Estradiol production by granulosa cells (ELISA); type: cell-based; conditions: FSH plus inhibitor, 48 hours
Experimental: Estradiol was determined by ELISA.
Estradiol Measurement. Cell culture medium used for steroid determinations by ELISA (DRG Instruments; RRID: AB_2756386)) following manufacturer's instructions.

[4] = system: primary human granulosa cells; test: mRNA expression of FSH target genes in primary human granulosa cells; type: cell-based
Text: Different letters represent significant differences (mean±SEM, N≥7, one-way ANOVA followed by Tukey, p<0.05).
Human Granulosa Cells. Human cells were collected from the follicular aspirates of women undergoing in vitro fertilization treatment at the University of Illinois at Chicago Fertility Center, under Institute Review Board approval. Informed consents were obtained from all women. In a subset of patients, additional information was collected to compare the effect of SIK inhibition in patients with different etiologies. Cells were transported immediately to the laboratory where they were dispersed by hyaluronidase digestion (8 IU/μl) and then centrifuged at 500×g for 5 minutes. Cells were incubated at room temperature in red blood cell lysis buffer for 2 minutes to eliminate contaminating erythrocytes. The cells were again centrifuged at 500×g for 5 minutes and suspended in 0.5 ml of serum-free DMEM/F12-0.25% BSA medium containing antibiotics. To investigate mRNA expression, cells were plated at a density of 30000 cells/well in 24-well plates coated with reconstituted basement membrane sold under the tradename Matrigel® (DB Biosciences). To investigate protein expression, cells were plated at a density of 200000 cells/well in 6-well plates coated with reconstituted basement membrane sold under the tradename Matrigel® (DB Biosciences). […] Each data point reflects a result obtained from individual patients. Cells from each patient were cultured separately.
as §2

[5] = system: SIK; conditions: in vivo; cited from earlier work
[6] = system: granulosa cells; test: In vivo treatment of immature mice with SIK inhibitor before PMSG, granulosa cell mRNA; conditions: immature female mice, 10 mg/kg i.p. 2 h before and with PMSG, 48 hours
Experimental: as §1
In vivo Treatment with SIK Inhibitors. […] Controls were injected with 4 IU PMSG alone. granulosa cells were collected 48 hours after PMSG.
as §2

Row | Structure (SMILES) | FSH-stimulation of aromatase (Cyp19a1 mRNA) [1] | Cyp19a1 mRNA levels, inhibitor alone ([1]; absence of FSH, HG at 1 or 3 μM) | CYP19A1 levels [2] | Stimulation of estradiol production by FSH [3] | IGF2 mRNA expression, FSH plus inhibitor vs FSH alone ([4]; 48 hours) | IGF2 mRNA levels, inhibitor alone vs controls ([4]; absence of FSH) | CYP11A1 mRNA levels, inhibitor alone ([4]; no FSH) | STARD1 mRNA levels, inhibitor alone ([4]; no FSH) | CYP19A1 mRNA levels, increase vs FSH only ([4]; FSH plus inhibitor, n=16 patients, P<0.0001) [fold] | CYP19A1 mRNA levels, inhibitor alone ([4]; no FSH) | Phosphorylation of a known SIK substrate [5] | Cyp11a1 mRNA induction by PMSG [6] | Stimulatory effect of PMSG on Cyp19a1 mRNA [6] | Stimulatory effect of PMSG on Stard1 mRNA [6]
1 | COc1ccc(N(C(=O)Nc2c(C)cccc2C)c2cc(Nc3ccc(N4CCN(C)CC4)cc3)ncn2)c(OC)c1 [HG-9-91-01] | potentiated FSH-stimulation of aromatase in a concentration-dependent manner | increased Cyp19a1 mRNA levels | stimulated CYP19A1 strongly | potentiated the stimulation of estradiol production by FSH in a dose-dependent manner | tended to be higher | increased IGF2 mRNA levels significantly | enough to increase STARD1 and CYP11A1 mRNA levels | enough to increase STARD1 and CYP11A1 mRNA levels |  |  |  |  |  | 
2 | O=C(NCCCNc1nc(Nc2cccc(CN3CCOCC3)c2)ncc1C1CC1)C1CCC1 [MRT67307] | Comparable findings |  |  | potentiated the stimulation of estradiol production by FSH in a dose-dependent manner |  |  |  |  | 3 | did not affect CYP19A1 mRNA levels |  |  |  | 
3 | COc1ccc(N2C(=O)N(c3c(C)cccc3Cl)Cc3cnc(Nc4ccc(C5CCN(C)CC5)cc4OC)nc32)nc1 [YKL-05-099] | enhances the stimulatory effect of FSH on Cyp19a1 mRNA expression in a concentration-dependent manner |  |  |  |  |  |  |  |  |  | reduces phosphorylation of a known SIK substrate | only a trend to increase Cyp11a1 mRNA induction | enhanced the stimulatory effect of PMSG on Cyp19a1 and Stard1 significantly | enhanced the stimulatory effect of PMSG on Cyp19a1 and Stard1 significantly
